Here are results for two compounds from paper PMC13316043, “Structural basis of NSD2 degradation via targeted recruitment of SCF-FBXO22” (Nature Communications, 2026).

The IC50 is the concentration that gives 50% inhibition.

The target of one data set is T1, His-tagged NSD2 PWWP1 (Homo sapiens, UniProt O96028).
T1 sequence (O96028 211-350): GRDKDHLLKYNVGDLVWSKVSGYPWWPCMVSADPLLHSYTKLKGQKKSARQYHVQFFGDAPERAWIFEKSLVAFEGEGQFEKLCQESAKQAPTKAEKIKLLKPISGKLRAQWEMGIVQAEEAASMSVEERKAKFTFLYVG
Nature of the data set: TR-FRET cooperativity (competition) assay: displacement of biotinylated NSD2 ligand UNC7096. Type of data set: binding. The text has this: Because of the direct interactions observed between FBXO22 and NSD2, we hypothesized that some degree of cooperative binding could facilitate complex stabilization. Therefore, we developed a TR-FRET assay to monitor the interaction between his-tagged NSD2 and a biotinylated NSD2 ligand, UNC7096, that is missing the modality for FBXO22-recruitment (Supplementary Fig. 3D)[20]. Given the positive FRET signal observed when both NSD2 PWWP1 and UNC7096 are present, we used this setup to evaluate the displacement of UNC7096 by UNC10088 in the presence or absence of the FBXO22 FIST domain (Supplementary Fig. 3D). […] Importantly, this FBXO22-dependent enhancement of NSD2 antagonism by UNC10088 was absent when C326 was substituted for alanine (Supplementary Fig. 3F). Taken together, the SCF^FBXO22-NSD2 PWWP1 structure both confirms prior results and provides additional insight into the surfaces that contribute to a cooperative interaction between NSD2 and FBXO22 to promote potent NSD2 polyubiquitination and degradation.
The TR-FRET assay was adapted to assess cooperativity from the following workflows previously reported[39],[40]. Assays were performed in white, low-volume, flat-bottom, nonbinding 384-well microplates (Greiner, Catalog No. 784904) with a final assay volume of 10 μL per well. The assay buffer contained 20 mM Tris–HCl (pH 7.5) and 150mM NaCl, 0.05% Tween-20 (v/v), 2mM DTT, and 1% DMSO (v/v). LANCE Europium (Eu)-W8044 Streptavidin conjugate (2 nM) and LANCE Ultra ULight-anti6x-His labeled antibodies (10 nM) were used as donor and acceptor fluorophores associated with the tracer ligand and protein, respectively. Final assay concentrations of 63 nM His-tagged NSD2 PWWP1 and 31 nM of UNC7096 (a biotinylated version of the NSD2 ligand) as a tracer ligand were used for compound testing. UNC8732, UNC10088, and UNC10415667 were diluted in a 10-point, 3-fold serial dilution, and indicated compounds were pre-incubated with FBXO22 FIST for 30 min. A master mix of NSD2 PWWP1, UNC7096, and TR-FRET reagents was made prior to its addition to the compounds and/or FBXO22 FIST. The plates were sealed with metallic covers, mixed gently for 1 min, and incubated in the dark for 1 h. After 1 h, the plate was read on an EnVision 2103 plate reader with a 320 nm excitation filter and 615 nm/ 665 nm emission filters simultaneously with a dual mirror D400/D630 and a 100 μs delay. […] Raw TR-FRET signals were normalized to a high inhibition control (10 μM of UNC10088) and negative control (1% DMSO). The normalized TR-FRET signals were plotted against the compound concentrations. […] Ki values were calculated from the IC50s using the tight-binding model[41],[42]. The cooperativity factor (α) was calculated as the ratio of Ki (Binary)/ Ki (Ternary), with α > 1 indicating positive cooperativity between NSD2 PWWP1 and FBXO22 FIST based on its disruption of NSD2 binding to UNC7096.

The target of data set [1] is T2, NSD2 (long and short forms) (Homo sapiens, UniProt O96028).
T2 sequence (O96028 211-350 limits assumed): T1 sequence (O96028 211-350)
Nature of the data set: Western blot of NSD2 in HEK293T cells. Type of data set: cell-based. As to conditions: 10 µM, 6 hrs, vs DMSO. As to the method: HEK293T and U2OS were obtained from ATCC and cultured in high-glucose-containing Dulbecco’s Modified Eagle’s Medium (DMEM; Gibco; cat. #11995) supplemented with 10% fetal bovine serum (VWR) and 1% penicillin/streptomycin (Gibco). Cells were treated with either UNC10415667, UNC12149, UNC12567, hemin (Sigma; cat. #H9039), or DMSO control for the indicated times and analyzed by western blot using standard procedures. Briefly, cells were lysed on ice for 15 min in NETN lysis buffer (20 mM Tris pH 8.0, 100 mM NaCl, 0.5 mM EDTA, 0.5% NP40) supplemented with 10 µg/mL aprotinin, 10 µg/mL leupeptin, 10 µg/mL pepstatin A, 1 mM sodium orthovanadate, 1 mM sodium fluoride, and 1 mM AEBSF (4-[two aminoethyl] benzenesulfonyl fluoride). Cell lysates were centrifuged at 20,000×g in a benchtop microcentrifuge at 4 °C for 10 min. Protein concentration was determined by Bradford assay (Bio-Rad; cat. #5000006). Protein concentration was normalized using Laemmli buffer. Samples were heated for 5 min at 95°C in a dry water-bath. Samples were separated on TGX stain free gels (Bio-Rad) transferred to nitrocellulose membrane and blocked in 5% non-fat dry milk (Biorad; cat. #1706404) diluted in 1x TBS-T (137 mM NaCl, 2.7 mM KCl, 25 mM Tris pH 7.6, 1% Tween-20). Primary antibody incubations (Anti-NSD2 (Abcam; Cat# ab75359; Lot# 1093214-1; 1:1000 dilution), Anti-BACH1 (Fortis Life Sciences; Cat# A303-805A; Lot# 1; 1:1000 dilution), and Anti-GAPDH (Santa Cruz Biotechnology; Cat# sc-47724; Lot# C1023; 1:1000 dilution)) were performed overnight at 4 °C. Secondary antibodies (Peroxidase AffiniPure Goat Anti-Rabbit IgG (H + L) (Jackson Immuno; Cat# 111-035-003; 1:5000 dilution) and Peroxidase AffiniPure Goat Anti-Mouse IgG (H + L) (Jackson Immuno; Cat# 115-035-003; 1:5000 dilution)) were incubated for 1 h at room temperature. Blots were developed by chemiluminescence using Pierce ECL (Thermo Fisher Scientific; cat. #32106).
On the technique in general: Immunoblotting shows a protein as a band on a membrane.

In another data set the test system is U2OS cells. Nature of the data set: CellTiter-Glo cell viability assay. Type of data set: cell-based, human. The conditions noted are these: 1 µM, 6 h. As to the method: The cell viability of NSD2 HiBiT U2OS P112 and parental U2OS cell lines treated with NSD2 degrader was determined by the CellTiter-Glo 2.0 Cell Viability Assay (Promega, G9242). 384-well plates (Corning) with cells and the reagent were equilibrated to the room temperature before detection. The reagent was added to the assay plate according to the product instruction and allowed to incubate on an orbital shaker for 3 min at room temperature before subjecting the plate to the GloMax luminometer (Promega). The data and graphs were then analyzed and generated using GraphPad Prism (v 10.4.1)

Where [2] appears, read: compound alone (buffer, no FBXO22 FIST), tracer UNC7096, read-out: IC50, competitive TR-FRET, binding to NSD2 PWWP1.

The structures appear in SMILES notation. Where two headings read alike, the source gives them in different places.

Take `O=C1COc2cc(C(=O)N(Cc3ccc(C(=O)Nc4ccc5c(c4)CCN(C(=O)CCCCC(O)S(=O)(=O)O)C5)cc3)C3CC3)ccc2N1` (centres unmarked) [UNC10088]: the half-maximal inhibitory concentration (IC50) stood at 227 ± 10 nM at His-tagged NSD2 PWWP1 (FBXO22 FIST C326A variant present, read-out: IC50, competitive TR-FRET, in the presence of C326A FIST); 108 nM at His-tagged NSD2 PWWP1 (FBXO22 FIST present, reagents not preincubated, read-out: IC50, competitive TR-FRET, in the presence of FBXO22 FIST without preincubation); 101 ± 8 nM on His-tagged NSD2 PWWP1 (WT FBXO22 FIST present, compound pre-incubated with FIST 30 min, read-out: IC50, competitive TR-FRET, in the presence of FBXO22 FIST); 248 ± 22 nM at His-tagged NSD2 PWWP1 (setting [2]). In addition, the “NSD2 levels by immunoblot” value in data set [1] is “degradation of NSD2”.

As to `O=Cc1ccc(C(=O)N2CCc3cc(NC(=O)c4ccc(CN(C(=O)c5ccc6c(c5)OCC(=O)N6)C5CC5)cc4)ccc3C2)cc1` [UNC10415667], the IC50 at His-tagged NSD2 PWWP1 (setting [2]) was 159 ± 24 nM. Besides, the cell viability result with U2OS cells is “did not impact cell viability”. The “NSD2 levels by immunoblot” value in data set [1] was “completely degraded”.
